Species on record: Rattus norvegicus
Assay: Open TG-GATES - Regimen: Single
Type: toxicity, organism-based, Sprague-Dawley
Parameters: regimen Single, gender Male, age 6 weeks
Details: in vivo, po, 25 mg/kg, route gavage, dose level Low; for APTT / Bas / Eos / Fbg / Hb / Ht / Lym / MCH / MCHC / MCV / Mono / Neu / PT / Plat / RBC / Ret / WBC: tissue Blood; for KIDNEY_L / KIDNEY_R / KIDNEY_TOTAL: tissue Kidney; for LIVER: tissue Liver; for ALP / ALT / AST / BUN / CRE / DBIL / GLC / K / Na / PL / RALB / TBIL / TC / TG / TP / gamma-GTP: tissue Plasma

Work on CN1C(=O)CN=C(c2ccccc2)c2cc(Cl)ccc21 [DIAZEPAM] yielded a TERMINAL_BW (3 h) of 218.9 g, an APTT (3 h) of 16.3 s and a Bas (3 h) of 0%. The Eos (3 h) was 1.2%, the Fbg (3 h) was 227 mg/dL and the Hb (3 h) was 13.9 g/dL. It also gave a Ht (3 h) of 41.8%, a Lym (3 h) of 76.6% and an MCH (3 h) of 21.8 pg. The MCHC (3 h) was 33.2%, the MCV (3 h) was 65.8 fL and the Mono (3 h) was 7.8%. For the same compound, the Neu (3 h) was 14.8%, the PT (3 h) was 12.4 s and the Plat (3 h) was 98.7 x10_4/uL. The RBC (3 h) was 636.6 x10_4/ul, the Ret (3 h) was 8.7% and the WBC (3 h) was 93.5 x10_2/uL. For the same compound, the KIDNEY_L (3 h) was 1 g, the KIDNEY_R (3 h) was 1 g and the KIDNEY_TOTAL (3 h) was 1.9 g. The LIVER (3 h) was 10.3 g, the ALP (3 h) was 763.4 IU/L and the ALT (3 h) was 30 IU/L. The AST (3 h) was 57.8 IU/L, the BUN (3 h) was 13.2 mg/dL and the CRE (3 h) was 0.5 mg/dL. It also gave a DBIL (3 h) of 0.018 mg/dL, a GLC (3 h) of 195.4 mg/dL and a K (3 h) of 5.3 meq/L. It also gave a Na (3 h) of 139 meq/L, a PL (3 h) of 150.2 mg/dL and an RALB (3 h) of 3.7 g/dL. For the same compound, the TBIL (3 h) was 0.4 mg/dL, the TC (3 h) was 83.2 mg/dL and the TG (3 h) was 66.2 mg/dL. It also gave a TP (3 h) of 5.5 g/dL, a gamma-GTP (3 h) of 2 IU/L and a TERMINAL_BW (6 h) of 216.1 g. For the same compound, the APTT (6 h) was 16.3 s, the Bas (6 h) was 0% and the Eos (6 h) was 0.6%. It also gave a Fbg (6 h) of 217 mg/dL, a Hb (6 h) of 13.9 g/dL and a Ht (6 h) of 42%. The Lym (6 h) was 79.4%, the MCH (6 h) was 21.6 pg and the MCHC (6 h) was 33%. The MCV (6 h) was 65.2 fL, the Mono (6 h) was 5.6% and the Neu (6 h) was 14.8%. For the same compound, the PT (6 h) was 12.1 s, the Plat (6 h) was 110.2 x10_4/uL and the RBC (6 h) was 643.4 x10_4/ul. For the same compound, the Ret (6 h) was 8.1%, the WBC (6 h) was 117.8 x10_2/uL and the KIDNEY_L (6 h) was 0.9 g. The KIDNEY_R (6 h) was 1 g, the KIDNEY_TOTAL (6 h) was 1.9 g and the LIVER (6 h) was 9.8 g. It also gave an ALP (6 h) of 989.8 IU/L, an ALT (6 h) of 30.8 IU/L and an AST (6 h) of 64.6 IU/L. The BUN (6 h) was 12 mg/dL, the CRE (6 h) was 0.5 mg/dL and the DBIL (6 h) was 0.058 mg/dL. The GLC (6 h) was 202.2 mg/dL, the K (6 h) was 5.3 meq/L and the Na (6 h) was 138.6 meq/L. It also gave a PL (6 h) of 143.4 mg/dL, an RALB (6 h) of 3.8 g/dL and a TBIL (6 h) of 0.4 mg/dL. For the same compound, the TC (6 h) was 77.2 mg/dL, the TG (6 h) was 67.4 mg/dL and the TP (6 h) was 5.7 g/dL. For the same compound, the gamma-GTP (6 h) was 1 IU/L, the TERMINAL_BW (9 h) was 212.2 g and the APTT (9 h) was 16.6 s. For the same compound, the Bas (9 h) was 0%, the Eos (9 h) was 0.6% and the Fbg (9 h) was 229.8 mg/dL. The Hb (9 h) was 13.8 g/dL, the Ht (9 h) was 41.7% and the Lym (9 h) was 78.8%. The MCH (9 h) was 21.6 pg, the MCHC (9 h) was 33% and the MCV (9 h) was 65.4 fL. The Mono (9 h) was 6.2%, the Neu (9 h) was 14.4% and the PT (9 h) was 12.2 s. It also gave a Plat (9 h) of 102.9 x10_4/uL, an RBC (9 h) of 638.2 x10_4/ul and a Ret (9 h) of 7.5%. The WBC (9 h) was 107.6 x10_2/uL, the KIDNEY_L (9 h) was 1 g and the KIDNEY_R (9 h) was 1 g. For the same compound, the KIDNEY_TOTAL (9 h) was 2 g, the LIVER (9 h) was 9.4 g and the ALP (9 h) was 723.6 IU/L. For the same compound, the ALT (9 h) was 26 IU/L, the AST (9 h) was 57.2 IU/L and the BUN (9 h) was 12.4 mg/dL. It also gave a CRE (9 h) of 0.6 mg/dL, a DBIL (9 h) of 0.044 mg/dL and a GLC (9 h) of 212.6 mg/dL. For the same compound, the K (9 h) was 4.8 meq/L, the Na (9 h) was 139.6 meq/L and the PL (9 h) was 142 mg/dL. For the same compound, the RALB (9 h) was 3.9 g/dL, the TBIL (9 h) was 0.3 mg/dL and the TC (9 h) was 83.8 mg/dL. It also gave a TG (9 h) of 44.8 mg/dL, a TP (9 h) of 5.7 g/dL and a gamma-GTP (9 h) of 1.6 IU/L. For the same compound, the TERMINAL_BW (24 h) was 227.7 g, the APTT (24 h) was 16.3 s and the Bas (24 h) was 0%. For the same compound, the Eos (24 h) was 1%, the Fbg (24 h) was 219.6 mg/dL and the Hb (24 h) was 13.4 g/dL. For the same compound, the Ht (24 h) was 40.4%, the Lym (24 h) was 81% and the MCH (24 h) was 21.7 pg. It also gave an MCHC (24 h) of 33.1%, an MCV (24 h) of 65.7 fL and a Mono (24 h) of 5.6%. It also gave a Neu (24 h) of 12.2%, a PT (24 h) of 12.2 s and a Plat (24 h) of 105.2 x10_4/uL. For the same compound, the RBC (24 h) was 616 x10_4/ul, the Ret (24 h) was 8.5% and the WBC (24 h) was 100.5 x10_2/uL. It also gave a KIDNEY_L (24 h) of 1 g, a KIDNEY_R (24 h) of 1.1 g and a KIDNEY_TOTAL (24 h) of 2.1 g. It also gave an LIVER (24 h) of 11.2 g, an ALP (24 h) of 1114.4 IU/L and an ALT (24 h) of 33.8 IU/L. It also gave an AST (24 h) of 63 IU/L, a BUN (24 h) of 16.6 mg/dL and a CRE (24 h) of 0.5 mg/dL. It also gave a DBIL (24 h) of 0.016 mg/dL, a GLC (24 h) of 185.6 mg/dL and a K (24 h) of 5.1 meq/L. For the same compound, the Na (24 h) was 140 meq/L, the PL (24 h) was 152.8 mg/dL and the RALB (24 h) was 3.7 g/dL. It also gave a TBIL (24 h) of 0.3 mg/dL, a TC (24 h) of 82.2 mg/dL and a TG (24 h) of 108.6 mg/dL. It also gave a TP (24 h) of 5.8 g/dL and a gamma-GTP (24 h) of 1.2 IU/L.

Source: ChEMBL document CHEMBL3885861, “Open TG-GATES”
